Key:
C4-2 cells = test: Cell proliferation / viability assay (Sytox Green, AC50), 7 days treatment; assay type: cell-based; details: C4-2 cell line (mCRPC, AR+, ARV7), single agent
Protocol: (§1) The following cell lines were originally obtained from ATCC:
(§2) Cell line identification was validated using the CellCheck assay (IDEXX Bioanalytics, Westbrook, ME, USA). All cell lines were validated free of virus Mycoplasma contamination using the MycoSEQ assay (Thermo Fisher Scientific, Waltham, MA, USA) or STAT-Myco assay (IDEXX Bioanalytics). All cell lines were grown RPMI-1640 growth media (Corning 17-105-CV) supplemented with 10% fetal bovine serum (FBS) or, when indicated, 10% charcoal stripped FBS (ThermoFisher Scientific, 12676029) and 2 mM glutamine.
(§3) Cells in 384-well or 96-well plates were dosed using an Echo 555 (LabCyte, San Jose, CA, USA) or using the HP D300e Digital Dispenser (HP Life Science Dispensing), respectively. Live cell count pre- and post-treatment (7 days after treatment) was determined using CellTiter-Glo as per manufacturer's instructions (Promega, Madison, WI, USA; G7570).
(§4) Cell viability was determined with the Sytox Green assay as described in Davies 2012 and the AC50 calculated. The HSA (Highest Single Agent) Synergy Score was calculated according to Bernenbaum 1989.

LnCAP cells = test: as above; assay type: cell-based; details: Homo sapiens, LnCAP cell line (mHSPC, AR+ T877A), single agent
Protocol: as §1, §2, §3, §4

| SMILES | AC50 (C4-2 cells) | AC50 (LnCAP cells) |
| --- | --- | --- |
| CCc1cc2ncc(CN3CCN(c4ccc(C(=O)NC)nc4)CC3)cc2[nH]c1=O [AZD5305, 5-{4-[(7-ethyl-6-oxo-5,6-dihydro-1,5-naphthyridin-3-yl)methyl]piperazin-1-yl}-N-methylpyridine-2-carboxamide] | > 1000 nM | > 1000 nM |
| C[C@]12CC[C@H](O)CC1=CC[C@@H]1[C@@H]2CC[C@]2(C)C(c3cccnc3)=CC[C@@H]12 [Abiraterone, abiraterone] | 2810 nM | 4940 nM |
